According to ChEMBL document CHEMBL1201862, “PubChem BioAssay data set” (2004):
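Dose response: 5 concentrations. Exposure: 48 h. Format: 96-well plates. Endpoint: linear interpolation; highest concentration if not reached. Here, GI50 denotes the concentration required for 50% inhibition of growth.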 The source made the active and inactive calls. No stated cut-off is given here; in the data, active = GI50 up to about 1.1 µM and inactive = higher.

How the values were obtained:
Test in all cases: inhibition of tumour cell growth, NCI panel, 48 h
[1] = tested on: UACC-257
[2] = tested on: RPMI-8226
[3] = tested on: Malme-3M
[4] = tested on: UACC-62
[5] = tested on: IGROV-1
[6] = tested on: SW-620
[7] = tested on: OVCAR-4
[8] = tested on: PC-3
[9] = tested on: HL-60
[10] = tested on: MDA-MB-231
[11] = tested on: ACHN
[12] = tested on: HOP-62
[13] = tested on: CAKI-1
[14] = tested on: HCC 2998
[15] = tested on: NCI-H522
[16] = tested on: SR
[17] = tested on: HOP-92

| Compound | GI50 [1] | GI50 [2] | GI50 [3] | GI50 [4] | GI50 [5] | GI50 [6] | GI50 [7] | GI50 [8] | GI50 [9] | GI50 [10] | GI50 [11] | GI50 [12] | GI50 [13] | GI50 [14] | GI50 [15] | GI50 [16] | GI50 [17] |
| --- | --- | --- | --- | --- | --- | --- | --- | --- | --- | --- | --- | --- | --- | --- | --- | --- | --- |
| CC(=O)O[C@H]1CC[C@H]2[C@@H]3CCC4=C/C(=N/OCCN(C)C)CC[C@]4(C)[C@H]3CC[C@]12C | 7.38 µM (inactive) | 1.2 µM (inactive) | 13.3 µM (inactive) | 10.7 µM (inactive) | 13.1 µM (inactive) | 9.51 µM (inactive) | 10.9 µM (inactive) | 12.5 µM (inactive) | 1.88 µM (inactive) | 20.2 µM (inactive) | 13.4 µM (inactive) | 13.4 µM (inactive) | 14 µM (inactive) | 6.43 µM (inactive) | 6.87 µM (inactive) |  |  |
| Cc1cc(N(CCC#N)CCC#N)ccc1C(/N=N/c1ccc(Cl)cc1)=N\NC(=O)c1ccccc1 | 58.7 µM (inactive) | 54.2 µM (inactive) | 20.4 µM (inactive) | 29.8 µM (inactive) | 24.5 µM (inactive) |  | 47.8 µM (inactive) | 32.5 µM (inactive) | 25.5 µM (inactive) | 34.6 µM (inactive) | 82 µM (inactive) | 59.6 µM (inactive) | 98.9 µM (inactive) | 31 µM (inactive) | 18.4 µM (inactive) | 9.59 µM (inactive) |  |
| N#C/C(=C\c1cc(F)cc(F)c1)c1ccccn1 | 32.1 µM (inactive) | 14.9 µM (inactive) | 25.9 µM (inactive) | 45.1 µM (inactive) | 54.8 µM (inactive) | > 10 µM (inactive) | 45.8 µM (inactive) | 24.3 µM (inactive) | > 10 µM (inactive) |  | 30.6 µM (inactive) | > 10 µM (inactive) | 39.5 µM (inactive) | 21.1 µM (inactive) | 24.2 µM (inactive) | 24 µM (inactive) | 20.5 µM (inactive) |
| COC(O)C(=O)c1c2c(cc3c1CCC3)CCCC2 (stereo not drawn) | 12.6 µM (inactive) | 2.46 µM (inactive) | 14 µM (inactive) | 3.47 µM (inactive) | 4.12 µM (inactive) | 3.44 µM (inactive) | 7.31 µM (inactive) | 4.32 µM (inactive) | 1.56 µM (inactive) | 9.64 µM (inactive) | 8.38 µM (inactive) | 17.1 µM (inactive) | 14.7 µM (inactive) | 1.97 µM (inactive) | 3.84 µM (inactive) | 4 µM (inactive) |  |
| NC12Oc3cc(O)cc(O)c3C1(c1ccc(Cl)cc1)c1c(O)cc(O)cc1O2 (stereo not drawn) | 79.1 µM (inactive) | 33.4 µM (inactive) | 40.6 µM (inactive) | 42 µM (inactive) | 41.7 µM (inactive) | > 100 µM (inactive) | 27.5 µM (inactive) | 43 µM (inactive) | 27.4 µM (inactive) |  | > 100 µM (inactive) | 68.9 µM (inactive) | > 100 µM (inactive) | > 100 µM (inactive) | 24.7 µM (inactive) | 22.5 µM (inactive) | 25.9 µM (inactive) |
| COc1ccc(-c2oc3cc(OC(C)=O)cc(OC(C)=O)c3c(=O)c2OC)cc1 | 19.7 µM (inactive) | 12.5 µM (inactive) | 26.5 µM (inactive) | 4.19 µM (inactive) | 16.2 µM (inactive) | 16.1 µM (inactive) |  | 17.9 µM (inactive) | 12.1 µM (inactive) | 22 µM (inactive) | 17 µM (inactive) | 18.1 µM (inactive) | 4.04 µM (inactive) | 18.3 µM (inactive) | 2.12 µM (inactive) | 13.5 µM (inactive) |  |
| CC(=O)c1ccc(NCN2C(=O)c3ccccc3C2=O)cc1 | > 100 µM (inactive) | 66.5 µM (inactive) | > 100 µM (inactive) | > 100 µM (inactive) | > 100 µM (inactive) | > 100 µM (inactive) | > 100 µM (inactive) | > 100 µM (inactive) | 36.9 µM (inactive) | > 100 µM (inactive) | > 100 µM (inactive) | > 100 µM (inactive) | > 100 µM (inactive) | > 100 µM (inactive) | 97.5 µM (inactive) |  | > 100 µM (inactive) |
| CCOC(=O)Cn1nnc2cc(Nc3c(C)[n+]([O-])c4cc(F)c(OCC)cc4[n+]3[O-])ccc21 | > 100 µM (inactive) | > 100 µM (inactive) |  |  | 96.2 µM (inactive) | > 100 µM (inactive) | > 100 µM (inactive) | > 100 µM (inactive) | > 100 µM (inactive) | 27.1 µM (inactive) | 35.9 µM (inactive) | 27.5 µM (inactive) | > 100 µM (inactive) |  | > 100 µM (inactive) |  | 13.6 µM (inactive) |
| COc1cc2c(cc1OC)C1C(O)C(OC)C(Br)C3(Br)CCN(C2)C13 (stereo not drawn) | > 100 µM (inactive) | > 100 µM (inactive) | 42.6 µM (inactive) | > 100 µM (inactive) | > 100 µM (inactive) | > 100 µM (inactive) | > 100 µM (inactive) | > 100 µM (inactive) | > 100 µM (inactive) | > 100 µM (inactive) | > 100 µM (inactive) | > 100 µM (inactive) | > 100 µM (inactive) | 70.3 µM (inactive) | 50.8 µM (inactive) |  | 15.1 µM (inactive) |
| Cn1c(CO)ccc1-c1ccc(-c2ccc(CO)[se]2)[se]1 | 0.192 µM (active) | 2.39 µM (inactive) | 4.15 µM (inactive) | 6.95 µM (inactive) | 0.0621 µM (active) | 1.58 µM (inactive) | 0.578 µM (active) | 18.2 µM (inactive) | 7.91 µM (inactive) | 21.2 µM (inactive) | 19.3 µM (inactive) | 7.28 µM (inactive) | 0.0176 µM (active) | 0.705 µM (active) | 18.8 µM (inactive) | 13.1 µM (inactive) |  |
| CC(C)CC(C(N)=O)C(=O)NC(Cc1ccccc1)NC(=O)CNC(=O)C(C)NC(=O)C(N)Cc1ccc(O)cc1 (stereo not drawn) | > 100 µM (inactive) | > 100 µM (inactive) | > 100 µM (inactive) | > 100 µM (inactive) | > 100 µM (inactive) | > 100 µM (inactive) | > 100 µM (inactive) | > 100 µM (inactive) | > 100 µM (inactive) | > 100 µM (inactive) | > 100 µM (inactive) | > 100 µM (inactive) | > 100 µM (inactive) | > 100 µM (inactive) | > 100 µM (inactive) | > 100 µM (inactive) |  |
| Cc1nc2ccccc2n1Cc1nnc2n1N=C(c1ccccc1)CS2 | 22.5 µM (inactive) | 17.7 µM (inactive) | 49.9 µM (inactive) | 23.9 µM (inactive) | 2.4 µM (inactive) | 34.4 µM (inactive) | 45.1 µM (inactive) | 16.7 µM (inactive) | 29.2 µM (inactive) | 20.6 µM (inactive) | 47.6 µM (inactive) | 47.3 µM (inactive) | 37.2 µM (inactive) | 21.4 µM (inactive) | 22.1 µM (inactive) |  |  |
| C=C1C(=O)O[C@H]2C/C(C=O)=C\[C@H]3O[C@H]3/C(COC(=O)C(C)C)=C/CC12 (stereo partly drawn) | 11.1 µM (inactive) | 2.52 µM (inactive) | 10.3 µM (inactive) | 2.2 µM (inactive) | 4.65 µM (inactive) | 2.52 µM (inactive) |  | 1.85 µM (inactive) | 2.11 µM (inactive) | 3.89 µM (inactive) | 2.32 µM (inactive) | 13.6 µM (inactive) | 2.65 µM (inactive) | 13.4 µM (inactive) | 3.39 µM (inactive) | 2.3 µM (inactive) |  |
| NS(=O)(=O)c1ccc(-n2c(-c3cccs3)nc3ccc(I)cc3c2=O)cc1 | 0.0522 µM (active) |  | 18.3 µM (inactive) | 17.9 µM (inactive) | 21.7 µM (inactive) | 37.9 µM (inactive) | 24.7 µM (inactive) | 26.6 µM (inactive) | 20.6 µM (inactive) |  | 21.4 µM (inactive) | 30.4 µM (inactive) | 19.4 µM (inactive) | 22.1 µM (inactive) | 19.7 µM (inactive) | 35 µM (inactive) | 18.5 µM (inactive) |
| Cc1c(-c2ccccc2)[nH]c2cc(Cl)ccc2c1=O | 49.2 µM (inactive) | > 100 µM (inactive) | 65 µM (inactive) | 54.6 µM (inactive) |  |  | 22.9 µM (inactive) |  | 23.1 µM (inactive) | 70.8 µM (inactive) | 55.8 µM (inactive) | 23 µM (inactive) | 29.2 µM (inactive) | > 100 µM (inactive) |  | 18.7 µM (inactive) |  |
| COc1ccc2cc(C(=O)NCCCNC(=O)c3ccc4c(OC)c(OC)ccc4c3)ccc2c1OC | > 100 µM (inactive) | > 100 µM (inactive) |  | > 100 µM (inactive) |  | > 100 µM (inactive) | > 100 µM (inactive) | > 100 µM (inactive) |  | > 100 µM (inactive) | > 100 µM (inactive) | > 100 µM (inactive) | > 100 µM (inactive) | > 100 µM (inactive) | > 100 µM (inactive) | > 100 µM (inactive) |  |
| CN1C(C)(C)CC(=O)C(Br)C1(C)C (stereo not drawn) | > 100 µM (inactive) | > 100 µM (inactive) | > 100 µM (inactive) | > 100 µM (inactive) | > 100 µM (inactive) | > 100 µM (inactive) | > 100 µM (inactive) | > 100 µM (inactive) | > 100 µM (inactive) |  | > 100 µM (inactive) | > 100 µM (inactive) | > 100 µM (inactive) |  | > 100 µM (inactive) | > 100 µM (inactive) | > 100 µM (inactive) |
| c1cc2c(s1)-c1sccc1C21OCCO1 | 45.6 µM (inactive) | 81.7 µM (inactive) | 67.1 µM (inactive) | 19.5 µM (inactive) |  |  | > 100 µM (inactive) |  | > 100 µM (inactive) | > 100 µM (inactive) | > 100 µM (inactive) | > 100 µM (inactive) | > 100 µM (inactive) | > 100 µM (inactive) | 82.8 µM (inactive) | > 100 µM (inactive) |  |
